In US9493461B2, “Tetracyclic heterocycle compounds and methods of use thereof for the treatment of hepatitis C” (priority 2013, dated 2016):

Columns and labels:
HCV replicon genotype 1b = assay: HCV replicon assay, genotype 1b (cell ELISA for replicon-encoded NS3/4A); format: cell-based, hepatitis C virus (HCV); settings: Hepatitis C virus, 96 h, read-out: 1b IC50 (nM), genotype 1b replicon cells, 96 hours incubation, NS3/4A ELISA readout, % of DMSO control
Outline: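 Genotype 1b replicon cells (neomycin-selected, G418 removed for assay) incubated 96 h with compound dilution series. Replication measured by cell ELISA for replicon-encoded NS3/4A after lysis; IC50 from four-parameter fit relative to DMSO control.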

HCV replicon genotype 1a = assay: HCV replicon assay, genotype 1a (cell ELISA for replicon-encoded NS3/4A); format: cell-based, hepatitis C virus (HCV); settings: Hepatitis C virus, 96 h, read-out: 1a IC50 (nM), genotype 1a replicon cells, 96 hours incubation, NS3/4A ELISA readout, % of DMSO control
Outline: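 Stable G418-selected neomycin-resistant HCV replicon cells were plated with serially diluted compound without G418 and incubated 96 h. After washing and lysis, replicon RNA was measured indirectly by cell ELISA for replicon-encoded NS3/4A; IC50 from four-parameter fit relative to DMSO control.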

Structure (SMILES)	IC50 (HCV replicon genotype 1b)	IC50 (HCV replicon genotype 1a)
CNC(=O)c1c(-c2ccc(OC(F)F)nc2)oc2cc(N(C)S(C)(=O)=O)c(-c3ccc4ncn5c6cccc(F)c6cc5c4n3)cc12 [Example 2]	6.91 nM	2.83 nM
CNC(=O)c1c(-c2ccc(F)cc2F)oc2cc(N(C)S(C)(=O)=O)c(-c3cc4c(cn3)ncn3c5cccc(F)c5cc43)cc12 [Example 75]	2.78 nM	1.03 nM
CCn1cc(-c2oc3cc(N(C)S(C)(=O)=O)c(-c4ccc5nc(CN6CC(F)C6)n6c7cccc(F)c7cc6c5n4)cc3c2C(=O)NC)cn1 [Example 32]	8.23 nM	18.6 nM
CNC(=O)c1c(-c2ccc(F)cc2)oc2cc(N(C)S(C)(=O)=O)c(-c3ccc4nc(CN5CCC(F)(F)C5)n5c6cccc(F)c6cc5c4n3)cc12 [Example 82]	2.45 nM	2.74 nM
CNC(=O)c1c(-c2ccc(F)cc2)oc2cc(N(C)S(C)(=O)=O)c(-c3ccc4nc(CN5CC[C@H](F)C5)n5c6cccc(F)c6cc5c4n3)cc12 [Example 86]	2.66 nM	1.99 nM
CNC(=O)c1c(-c2ccc(F)cc2)oc2cc(N(C)S(C)(=O)=O)c(-c3cc4c(cn3)nc(CN3CC(C)(F)C3)n3c5cccc(F)c5cc43)cc12 [Example 118]	4.24 nM	2.67 nM
CNC(=O)c1c(-c2ccc(F)nc2)oc2cc(N(C)S(C)(=O)=O)c(-c3ccc4nc(CN5CC(F)C5)n5c6cccc(F)c6cc5c4n3)cc12 [Example 31]	4.69 nM	2.95 nM
CNC(=O)c1c(-c2ccc(F)cc2)oc2cc(N(C)S(C)(=O)=O)c(-c3ccc4nc(CN5CC(OC)C5)n5c6cccc(F)c6cc5c4n3)cc12 [Example 88]	4.22 nM	4.09 nM
CNC(=O)c1c(-c2ccc(F)cc2)oc2cc(N(C)S(C)(=O)=O)c(-c3ccc4nc(CN5CCC(F)(F)CC5)n5c6cccc(C#N)c6cc5c4n3)cc12 [Example 123]	5.8 nM	6.91 nM
CNC(=O)c1c(-c2ccc(OC(F)F)nc2)oc2cc(N(C)S(C)(=O)=O)c(-c3cc4c(cn3)ncn3c5cccc(F)c5cc43)cc12 [Example 18]	1.86 nM	1.06 nM
CNC(=O)c1c(C2CC2)oc2cc(N(C)S(C)(=O)=O)c(-c3ccc4ncn5c6cccc(F)c6cc5c4n3)cc12 [Example 8]	5.82 nM	5.71 nM
CNC(=O)c1c(-c2ccc(F)cc2)oc2cc(N(C)S(C)(=O)=O)c(-c3ccc4nc(CN5CC(CC(F)(F)F)C5)n5c6cccc(C#N)c6cc5c4n3)cc12 [Example 136]	10.6 nM	6.6 nM
CNC(=O)c1c(-c2ccc(F)cc2)oc2cc(N(C)S(C)(=O)=O)c(-c3ccc4nc(CN5CCC5)n5c6cccc(F)c6cc5c4n3)cc12 [Example 84]	1.96 nM	1.34 nM
CNC(=O)c1c(-c2ccc(F)cc2)oc2cc(N(C)S(C)(=O)=O)c(-c3ccc4c(n3)-c3cc5c(F)cccc5n3C(C)(C)N4)cc12 [Example 66, 5-(11-fluoro-6,6-dimethyl-5,6-dihydropyrido[3′,2′:4,5]pyrimido[1,6-a]indol-2-yl)-2-(4-fluorophenyl)-N-methyl-6-(N-methylmethylsulfonamido)benzofuran-3-carboxamide]	9.23 nM	5.96 nM
CNC(=O)c1c(-c2ccc(F)cc2)oc2cc(N(C)S(C)(=O)=O)c(-c3ccc4nc(CN5CC(C(C)(C)O)C5)n5c6cccc(F)c6cc5c4n3)cc12 [Example 97]	3.49 nM	2.98 nM
CNC(=O)c1c(-n2ccccc2=O)oc2cc(N(C)S(C)(=O)=O)c(-c3ccc4nc(CN5CC(F)C5)n5c6cccc(F)c6cc5c4n3)cc12 [Example 29]	3.63 nM	2.21 nM
CNC(=O)c1c(C(=O)N2CC(F)(F)C2)oc2cc(N(C)S(C)(=O)=O)c(-c3ccc4ncn5c6cccc(F)c6cc5c4n3)cc12 [Example 51]	32 nM	39.1 nM

Structure (SMILES)	IC50 (HCV replicon genotype 1b)	IC50 (HCV replicon genotype 1a)
CNC(=O)c1c(-c2ccc(OC)nc2)oc2cc(N(C)S(C)(=O)=O)c(-c3ccc4nc(CN5CC(F)C5)n5c6cccc(F)c6cc5c4n3)cc12 [Example 34]	4.66 nM	2.43 nM
CNC(=O)c1c(-c2ccc(C)nc2)oc2cc(N(C)S(C)(=O)=O)c(-c3ccc4ncn5c6cccc(F)c6cc5c4n3)cc12 [Example 5]	7.4 nM	3.7 nM
CNC(=O)c1c(-c2ccc(F)cc2)oc2cc(N(C)S(C)(=O)=O)c(-c3ccc4nc(CN5CC[C@@H](F)C5)n5c6cccc(C#N)c6cc5c4n3)cc12 [Example 121]	3.25 nM	2.95 nM
CNC(=O)c1c(-c2ccc(F)cc2)oc2cc(N(C)S(C)(=O)=O)c(-c3ccc4nc(CCN5CC(F)C5)c5c([nH]c6cccc(F)c65)c4n3)cc12 [54′, 5-(7-fluoro-6-(2-(3-fluoroazetidin-1-yl)ethyl)-11H-indolo[3,2-c][1,5]naphthyridin-2-yl)-2-(4-fluorophenyl)-N-methyl-6-(N-methylmethylsulfonamido)benzofuran-3-carboxamide]	4.24 nM	4.17 nM
CNC(=O)c1c(-c2ccc(F)cc2)oc2cc(N(C)S(C)(=O)=O)c(-c3cc4c(cn3)nc(CN3CCC(F)(F)C3)n3c5cccc(F)c5cc43)cc12 [Example 117]	5.01 nM	3.49 nM
CNC(=O)c1c(-c2ccc(F)cc2)oc2cc(N(C)S(C)(=O)=O)c(-c3ccc4nc(N)n5c6cccc(F)c6cc5c4n3)cc12 [Example 25, 5-(6-amino-11-fluoropyrido[3′,2′:4,5]pyrimido[1,6-a]indol-2-yl)-2-(4-fluorophenyl)-N-methyl-6-(N-methylmethylsulfonamido)benzofuran-3-carboxamide]	145 nM	245 nM
CNC(=O)c1c(-c2ccc(F)cc2)oc2cc(N(C)S(C)(=O)=O)c(-c3ccc4c(n3)-c3cc5c(F)cccc5n3C(CC(=O)OC)N4)cc12 (centres unmarked) [Example 71, methyl 2-(11-fluoro-2-(2-(4-fluorophenyl)-3-(methylcarbamoyl)-6-(N-methylmethylsulfonamido)benzofuran-5-yl)-5,6-dihydropyrido[3′,2′:4,5]pyrimido[1,6-a]indol-6-yl)acetate]	3.44 nM	2.98 nM
CNC(=O)c1c(-c2ccc(F)cc2)oc2cc(N(C)S(C)(=O)=O)c(-c3ccc4nc(CN5CCOCC5)n5c6cccc(C#N)c6cc5c4n3)cc12 [Example 134]	2.02 nM	2.6 nM
CNC(=O)c1c(-c2ccc(F)cc2)oc2cc(N(C)S(C)(=O)=O)c(-c3ccc4nc(CN5CC(C)(C#N)C5)n5c6cccc(F)c6cc5c4n3)cc12 [Example 89]	3.45 nM	3.41 nM
CNC(=O)c1c(-c2ccc(F)cc2)oc2cc(N(C)S(C)(=O)=O)c(-c3ccc4c(n3)-c3cc5c(F)cccc5n3C(CO)N4)cc12 (centres unmarked) [Example 64, 5-(11-fluoro-6-(hydroxymethyl)-5,6-dihydropyrido[3′,2′:4,5]pyrimido[1,6-a]indol-2-yl)-2-(4-fluorophenyl)-N-methyl-6-(N-methylmethylsulfonamido)benzofuran-3-carboxamide]	11.8 nM	11.8 nM
CNC(=O)c1c(-c2ccc(F)cc2)oc2cc(N(C)S(C)(=O)=O)c(-c3ccc4c(n3)-c3cc5c(F)cccc5n3C(CCO)N4)cc12 (centres unmarked) [Example 65, 5-(11-fluoro-6-(2-hydroxyethyl)-5,6-dihydropyrido[3′,2′:4,5]pyrimido[1,6-a]indol-2-yl)-2-(4-fluorophenyl)-N-methyl-6-(N-methylmethylsulfonamido)benzofuran-3-carboxamide]	2.42 nM	2.52 nM
CNC(=O)c1c(C(=O)N2CCC2(C)C)oc2cc(N(C)S(C)(=O)=O)c(-c3ccc4ncn5c6cccc(F)c6cc5c4n3)cc12 [Example 52]	120 nM	260 nM
CNC(=O)c1c(-c2ccc(F)cc2)oc2cc(N(C)S(C)(=O)=O)c(-c3ccc4nc(CN5CC(F)(F)C5)n5c6cccc(F)c6cc5c4n3)cc12 [Example 80]	2.46 nM	2.65 nM
CNC(=O)c1c(-c2ccc(F)cc2)oc2cc(N(C)S(C)(=O)=O)c(-c3ccc4nc(CN5[C@H](C)COC[C@@H]5C)n5c6cccc(F)c6cc5c4n3)cc12 [Example 96]	11.2 nM	7.76 nM
CNC(=O)c1c(-c2ccc(F)cc2)oc2cc(N(C)S(C)(=O)=O)c(-c3ccc4nc(CN5CCOCC5)n5c6cccc(F)c6cc5c4n3)cc12 [Example 90]	3.66 nM	3.62 nM
CNC(=O)c1c(-c2ccc(F)cc2)oc2cc(N(C)S(C)(=O)=O)c(-c3ccc4nc(CCN5CC(F)C5)n5c6cccc(F)c6cc5c4n3)cc12 [Example 54, 5-(11-fluoro-6-(2-(3-fluoroazetidin-1-yl)ethyl)pyrido[3′,2′:4,5]pyrimido[1,6-a]indol-2-yl)-2-(4-fluorophenyl)-N-methyl-6-(N-methylmethylsulfonamido)benzofuran-3-carboxamide]	4.86 nM	2.14 nM
CNC(=O)c1c(-c2ccc(F)cc2F)oc2cc(N(C)S(C)(=O)=O)c(-c3ccc4nc(CN5CCC[C@@H]5C(F)(F)F)n5c6cccc(F)c6cc5c4n3)cc12 [Example 144]	14.6 nM	13.3 nM
